Laboratory results reported in ChEMBL document CHEMBL3045930, “Study on the quantitative structuretoxicity relationships of aconitine compounds basing on PCA-ANN method” (Med Chem Res, 2013).

tested on: Mus musculus; test: Toxicity in po dosed Mus musculus (mouse); format: organism-based; parameters: unit not given here; conditions: in vivo

Compound	logLD50
COC[C@@]12CC[C@H](OC)[C@]34C([C@@H]([C@H](OC)[C@H]13)[C@]1(OC(C)=O)[C@H]3[C@@H](OC(=O)c5ccccc5)[C@](O)(C[C@H]34)[C@@H](OC)[C@@H]1O)N(C)C2	-0.33
CCN1C[C@@H]2CC[C@H](OC)[C@]34C1[C@@H](C[C@H]23)[C@@]1(O)C[C@@H](OC)[C@@]2(O)C[C@@H]4[C@@H]1[C@H]2OC(=O)c1ccccc1	1.45
CCN1C[C@]2(C)CC[C@H](OC)[C@@]34C1[C@@]1(OCO[C@@]15C[C@H](OC)[C@H]1C[C@]3(O)[C@@H]5[C@H]1OC)[C@@H](OC(C)=O)[C@H]24	2.12
Br.CCN1C[C@]2(COC)[C@H](O)C[C@H](OC)[C@]34C1[C@@H]([C@H](OC)[C@H]23)[C@]1(OC(C)=O)[C@H]2[C@@H](OC(=O)c3ccccc3)[C@](O)(C[C@H]24)[C@@H](OC)[C@@H]1O	-0.87
CCN1C[C@]2(COC)CC[C@H](OC)[C@]34C1[C@@H](C[C@H]23)[C@@]1(O)C[C@H](OC)[C@H]2C[C@@H]4[C@@H]1[C@H]2O	-0.94
CCN1C[C@]2(COC(=O)c3ccccc3N3C(=O)C[C@H](C)C3=O)CC[C@H](OC)[C@]34C1[C@@](O)([C@@H](OC)[C@H]23)[C@@]1(O)C[C@H](OC)[C@H]2C[C@@H]4[C@@H]1[C@H]2OC	0.48
CCN1C[C@]2(COC)[C@H](O)C[C@H](OC)[C@]34C1[C@@H]([C@H](OC)[C@H]23)[C@]1(OC(C)=O)[C@H]2[C@@H](OC(=O)c3ccccc3)[C@](O)(C[C@]24O)[C@@H](OC)[C@@H]1O	-0.66
CCN1C[C@@]2(COC)[C@H]3[C@@H](OC)[C@@H]4C1[C@]3([C@@H](OC)C[C@H]2OC(C)=O)[C@@H]1C[C@@]2(O)[C@H](OC(=O)c3ccccc3)[C@@H]1[C@]4(OC(C)=O)[C@@H](O)[C@@H]2OC	-0.4
Br.CCN1C[C@]2(COC)[C@H](O)C[C@H](OC)[C@]34C1[C@@H]([C@H](OC)[C@H]23)[C@]1(O)[C@H]2[C@@H](OC(=O)c3ccccc3)[C@](O)(C[C@H]24)[C@@H](OC)[C@@H]1O	1.41
CCN1C[C@@]2(COC)[C@H]3[C@@H](OC)[C@@H]4C1[C@]3([C@@H](OC)C[C@H]2OC(C)=O)[C@@H]1C[C@@]2(OC(C)=O)[C@H](OC(=O)c3ccccc3)[C@@H]1[C@]4(OC(C)=O)[C@@H](OC(C)=O)[C@@H]2OC	2.1
CCN1C[C@@]2(COC)[C@H]3[C@@H](OC)[C@@H]4C1[C@]3([C@@H](OC)C[C@H]2OC(C)=O)[C@@H]1C[C@@]2(OC(C)=O)[C@H](OC(C)=O)[C@@H]1[C@]4(OC(C)=O)[C@@H](OC(C)=O)[C@@H]2OC	2.83
Br.COC[C@]12CN(C)C3[C@H]4[C@H](OC)[C@H]1[C@@]3([C@@H](OC)C[C@H]2O)[C@@H]1C[C@@]2(O)[C@H](OC(=O)c3ccccc3)[C@@H]1[C@]4(OC(C)=O)[C@@H](O)[C@@H]2OC	-0.95
COC[C@]12CN(C)C3[C@H]4[C@H](OC)[C@H]1[C@@]3([C@@H](OC)C[C@H]2O)[C@@H]1C[C@@]2(O)[C@H](OC(=O)c3ccccc3)[C@@H]1[C@]4(O)[C@@H](O)[C@@H]2OC	1.32
Br.COC[C@]12CN(C)C3[C@H]4[C@H](OC)[C@H]1[C@@]3([C@@H](OC)C[C@H]2O)[C@@H]1C[C@@]2(O)[C@H](OC(=O)c3ccccc3)[C@@H]1[C@]4(O)[C@@H](O)[C@@H]2OC	1.38
CCN1C[C@]2(COC)[C@H](O)C[C@H](OC)[C@]34C1[C@@H]([C@H](OC)[C@H]23)[C@@]1(O)C[C@H](OC)[C@@]2(O)C[C@@H]4[C@@H]1[C@H]2OC(=O)c1ccccc1	2.15
CCN1C[C@@]2(COC)[C@H]3[C@@H](OC)[C@@H]4C1[C@]3([C@@H](OC)C[C@H]2OC(C)=O)[C@@H]1C[C@]2(O)[C@@H](OC)C[C@@]4(OC(C)=O)[C@H]1[C@H]2OC(=O)c1ccccc1	3.16
CCN1C[C@@]2(COC)[C@H]3[C@@H](OC)[C@@H]4C1[C@]3([C@@H](OC)C[C@H]2OC(C)=O)[C@@H]1C[C@]2(OC(C)=O)[C@@H](OC)C[C@@]4(OC(C)=O)[C@H]1[C@H]2OC(=O)c1ccccc1	1.34
CCN1C[C@@]2(COC)[C@H]3[C@@H](OC)[C@@H]4C1[C@]3([C@@H](OC)C[C@H]2OC(C)=O)[C@@H]1C[C@]2(OC(C)=O)[C@@H](OC)C[C@@]4(OC(C)=O)[C@H]1[C@H]2OC(C)=O	2.18

Compound	logLD50
Br.COC[C@@]12CC[C@H](OC)[C@]34C([C@@H]([C@H](OC)[C@H]13)[C@]1(OC(C)=O)[C@H]3[C@@H](OC(=O)c5ccccc5)[C@](O)(C[C@H]34)[C@@H](OC)[C@@H]1O)N(C)C2	-0.27
COC[C@@]12CC[C@H](OC)[C@]34C([C@@H]([C@H](OC)[C@H]13)[C@]1(O)[C@H]3[C@@H](OC(=O)c5ccccc5)[C@](O)(C[C@H]34)[C@@H](OC)[C@@H]1O)N(C)C2	1.36
Br.COC[C@@]12CC[C@H](OC)[C@]34C([C@@H]([C@H](OC)[C@H]13)[C@]1(O)[C@H]3[C@@H](OC(=O)c5ccccc5)[C@](O)(C[C@H]34)[C@@H](OC)[C@@H]1O)N(C)C2	1.41
CCN1C[C@]2(COC)CC[C@H](O)[C@]34C1[C@@](O)([C@@H](OC)[C@H]23)[C@@]1(O)C[C@H](OC)[C@H]2C[C@@H]4[C@@H]1[C@H]2OC.Cl	2.07
CCN1C[C@]2(O)CC[C@H](OC)[C@]34C1[C@@H](C[C@H]23)[C@@]1(O)C[C@H](OC)[C@H]2C[C@@H]4[C@]1(O)[C@H]2OC	2.15
CCN1C[C@]2(OC(=O)c3ccccc3NC(C)=O)CC[C@H](OC)[C@]34C1[C@@H](C[C@H]23)[C@@]1(O)C[C@H](OC)[C@H]2C[C@@H]4[C@]1(O)[C@H]2OC	0.84
Br.CCN1C[C@]2(OC(=O)c3ccccc3NC(C)=O)CC[C@H](OC)[C@]34C1[C@@H](C[C@H]23)[C@@]1(O)C[C@H](OC)[C@H]2C[C@@H]4[C@]1(O)[C@H]2OC	0.92
CCN1C[C@]2(OC(=O)c3ccccc3NC(C)=O)CC[C@H](OC)[C@]34C1[C@@H](C[C@H]23)[C@@]1(OC(C)=O)C[C@H](OC)[C@H]2C[C@@H]4[C@]1(OC(C)=O)[C@H]2OC	1.16
CCN1C[C@]2(COC)CC[C@H](O)[C@]34C1[C@@](O)([C@@H](OC)[C@H]23)[C@@]1(O)C[C@H](OC)[C@H]2C[C@@H]4[C@@H]1[C@H]2O	2.04
CCN1C[C@]2(COC)[C@H](O)C[C@H](OC)[C@]34C1[C@@H]([C@H](OC)[C@H]23)[C@@]1(OC(C)=O)C[C@H](OC)[C@@]2(O)C[C@@H]4[C@@H]1[C@H]2OC(=O)c1ccc(OC)c(OC)c1	2.56
CCN1C[C@]2(COC)[C@H](O)C[C@H](OC)[C@]34C1[C@@H]([C@H](OC)[C@H]23)[C@]1(O)[C@H]2[C@@H](OC(=O)c3ccccc3)[C@](O)(C[C@H]24)[C@@H](OC)[C@@H]1O	1
COC[C@]12CN(C)C3[C@H]4[C@H](OC)[C@H]1[C@@]3([C@@H](OC)C[C@H]2O)[C@@H]1C[C@@]2(O)[C@H](OC(=O)c3ccccc3)[C@@H]1[C@]4(OC(C)=O)[C@@H](OC)[C@@H]2O	-1
CCN1C[C@]2(COC)[C@H](O)C[C@H](OC)[C@]34C1[C@@H]([C@H](OC)[C@H]23)[C@@]1(OC(C)=O)C[C@H](OC)[C@@]2(O)C[C@@H]4[C@@H]1[C@H]2OC(=O)c1ccccc1	-0.33
CCN1C[C@]2(COC)[C@H](O)C[C@H](OC)[C@]34C1[C@@H]([C@H](OC)[C@H]23)[C@]1(OC(C)=O)[C@H]2[C@@H](OC(=O)c3ccccc3)[C@](O)(C[C@H]24)[C@@H](OC)[C@@H]1O (stereo in doubt; 1)	-0.92
CCN1C[C@]2(COC)[C@H](O)C[C@H](OC)[C@]34C1[C@@H]([C@H](OC)[C@H]23)[C@]1(OC(C)=O)[C@H]2[C@@H](OC(=O)c3ccccc3)[C@](O)(C[C@H]24)[C@@H](OC)[C@@H]1O (stereo in doubt; 12)	-0.78
CCN1C[C@]2(COC)CC[C@H](O)[C@]34C1[C@@](O)([C@@H](OC)[C@H]23)[C@@]1(O)C[C@H](OC)[C@H]2C[C@@H]4[C@@H]1[C@H]2OC [DELSOLINE]	2.24
CCN1C[C@]2(COC(=O)c3ccccc3N3C(=O)C[C@H](C)C3=O)CC[C@H](OC)[C@@]34C1[C@@]1(OCO[C@@]15C[C@H](OC)[C@H]1C[C@@H]3[C@@H]5[C@H]1OC)[C@@H](OC)[C@H]24 [ELATINE]	0.7
CCN1C[C@]2(C)CC[C@H](O)[C@]34C1[C@@H](C[C@H]23)[C@@]1(O)C[C@H](OC)[C@H]2C[C@@H]4[C@@H]1[C@H]2O [KARAKOLINE]	1.71
